Assay results as given in ChEMBL document CHEMBL5465560, “Selectivity Literature for EUbOPEN Chemogenomic Library” (2024).
Values belong to the compound of their own block, whether it stands above or below them.

Key:
[1] = biological target: Tyrosine-protein kinase Lck (Homo sapiens, UniProt P06239); experiment: Selectivity interaction (Kinase panel (literature)) EUB0001199aCl LCK; details: at 1 µM
[2] = biological target: T1, Histone-arginine methyltransferase CARM1 (Homo sapiens) (UniProt Q86X55); experiment: Selectivity interaction (Methyltransferase screen (radiometric assays, panel of 8 PRMTs, 21 protein lysine methyltransferases, 3 DNA methyltransferases, and one RNA methyltransferase)) EUB0000271b CARM1
T1 sequence (whole entry): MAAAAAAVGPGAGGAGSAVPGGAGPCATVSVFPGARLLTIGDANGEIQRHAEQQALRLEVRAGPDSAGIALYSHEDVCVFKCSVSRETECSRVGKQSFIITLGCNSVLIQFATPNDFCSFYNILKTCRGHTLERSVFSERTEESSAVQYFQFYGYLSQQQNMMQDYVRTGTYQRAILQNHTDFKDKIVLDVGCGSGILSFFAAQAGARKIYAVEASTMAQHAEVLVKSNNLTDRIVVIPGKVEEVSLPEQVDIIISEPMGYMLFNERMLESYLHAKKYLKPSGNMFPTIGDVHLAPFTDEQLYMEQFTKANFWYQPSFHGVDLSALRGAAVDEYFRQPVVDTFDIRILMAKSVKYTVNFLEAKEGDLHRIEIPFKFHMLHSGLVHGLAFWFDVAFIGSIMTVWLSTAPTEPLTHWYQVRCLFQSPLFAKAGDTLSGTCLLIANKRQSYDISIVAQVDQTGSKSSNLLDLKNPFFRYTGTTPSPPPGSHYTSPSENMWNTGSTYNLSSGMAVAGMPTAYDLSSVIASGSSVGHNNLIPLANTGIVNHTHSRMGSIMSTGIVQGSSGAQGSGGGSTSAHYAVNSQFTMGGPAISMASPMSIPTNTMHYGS

[3] = biological target: AP2-associated protein kinase 1 (Homo sapiens, UniProt Q2M2I8); experiment: Selectivity interaction (KinomeScan (DiscoverX)) EUB0000595a AAK1; details: at 10 µM
[4] = biological target: Serine/threonine-protein kinase PAK 4 (Homo sapiens, UniProt O96013); experiment: Selectivity interaction (Kinase panel (DSF assay)) EUB0001558a PAK4
[5] = biological target: Proto-oncogene tyrosine-protein kinase ROS (Homo sapiens) (UniProt P08922); experiment: Selectivity interaction (KinomeScan (DiscoverX)) EUB0000045b ROS1
[6] = biological target: T2, Dual specificity mitogen-activated protein kinase kinase 6 (Homo sapiens) (UniProt P52564); experiment: Selectivity interaction (Kinase panel (KiNativ target engagement assay in Jurkat cells)) EUB0001635a MAP2K6; assay type: cell-based; details: Selectivity number of off-targets 0.0, Selectivity number of targets 233.0, Source Knowledge https://www.sciencedirect.com/science/article/pii/S2451945619300674?via%3Dihub, at 1 µM
T2 sequence (whole entry): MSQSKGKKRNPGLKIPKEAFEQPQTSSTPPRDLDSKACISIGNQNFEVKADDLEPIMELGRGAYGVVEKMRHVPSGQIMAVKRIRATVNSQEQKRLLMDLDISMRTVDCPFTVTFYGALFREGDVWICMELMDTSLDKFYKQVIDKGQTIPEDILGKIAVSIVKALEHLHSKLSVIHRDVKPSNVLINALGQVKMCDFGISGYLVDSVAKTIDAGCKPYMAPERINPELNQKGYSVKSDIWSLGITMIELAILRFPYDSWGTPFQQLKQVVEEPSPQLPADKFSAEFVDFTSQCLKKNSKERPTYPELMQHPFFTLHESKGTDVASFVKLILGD

[7] = biological target: T3, Serine/threonine-protein kinase Nek9 (Homo sapiens) (UniProt Q8TD19); experiment: Selectivity interaction (Kinase panel (KiNativ target engagement assay in Jurkat cells)) EUB0001635a NEK9; assay type: cell-based; details: at 1 µM
T3 sequence (whole entry): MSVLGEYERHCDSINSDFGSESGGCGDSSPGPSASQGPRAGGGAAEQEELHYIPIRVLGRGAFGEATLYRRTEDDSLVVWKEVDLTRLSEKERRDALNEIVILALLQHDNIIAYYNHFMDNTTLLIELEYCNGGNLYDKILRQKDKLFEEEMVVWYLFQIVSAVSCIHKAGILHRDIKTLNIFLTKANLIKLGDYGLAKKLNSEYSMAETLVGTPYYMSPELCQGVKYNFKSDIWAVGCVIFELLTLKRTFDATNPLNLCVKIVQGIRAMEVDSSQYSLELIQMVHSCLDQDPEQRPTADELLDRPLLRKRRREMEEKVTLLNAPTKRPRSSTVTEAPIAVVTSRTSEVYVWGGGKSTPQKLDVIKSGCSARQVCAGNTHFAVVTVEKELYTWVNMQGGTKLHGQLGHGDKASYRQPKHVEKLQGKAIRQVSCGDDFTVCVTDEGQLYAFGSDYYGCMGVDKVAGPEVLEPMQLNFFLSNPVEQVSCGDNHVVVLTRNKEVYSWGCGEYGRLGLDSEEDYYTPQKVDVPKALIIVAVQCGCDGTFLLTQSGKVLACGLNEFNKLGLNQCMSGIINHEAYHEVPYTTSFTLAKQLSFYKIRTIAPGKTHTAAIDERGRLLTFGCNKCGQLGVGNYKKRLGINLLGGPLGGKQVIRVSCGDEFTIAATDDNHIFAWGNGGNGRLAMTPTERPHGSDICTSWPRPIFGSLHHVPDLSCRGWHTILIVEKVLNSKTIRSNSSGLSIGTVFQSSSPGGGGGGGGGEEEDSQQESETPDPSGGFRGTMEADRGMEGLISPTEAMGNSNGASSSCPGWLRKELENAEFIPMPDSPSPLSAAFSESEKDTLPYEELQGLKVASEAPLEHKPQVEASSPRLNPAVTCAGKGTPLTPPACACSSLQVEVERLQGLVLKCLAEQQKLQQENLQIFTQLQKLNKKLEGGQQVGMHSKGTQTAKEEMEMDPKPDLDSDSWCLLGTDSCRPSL

[8] = biological target: Cyclin-dependent kinase 13 (Homo sapiens, UniProt Q14004); experiment: Selectivity interaction (KinomeScan (DiscoverX)) EUB0001619a CDK13; details: at 1 µM
[9] = biological target: Serine/threonine-protein kinase Nek4 (Homo sapiens) (UniProt P51957); experiment: Selectivity interaction (KinomeScan (DiscoverX)) EUB0001619a NEK4; details: at 1 µM

Chain of Proto-oncogene tyrosine-protein kinase ROS (Homo sapiens) (P08922 whole entry): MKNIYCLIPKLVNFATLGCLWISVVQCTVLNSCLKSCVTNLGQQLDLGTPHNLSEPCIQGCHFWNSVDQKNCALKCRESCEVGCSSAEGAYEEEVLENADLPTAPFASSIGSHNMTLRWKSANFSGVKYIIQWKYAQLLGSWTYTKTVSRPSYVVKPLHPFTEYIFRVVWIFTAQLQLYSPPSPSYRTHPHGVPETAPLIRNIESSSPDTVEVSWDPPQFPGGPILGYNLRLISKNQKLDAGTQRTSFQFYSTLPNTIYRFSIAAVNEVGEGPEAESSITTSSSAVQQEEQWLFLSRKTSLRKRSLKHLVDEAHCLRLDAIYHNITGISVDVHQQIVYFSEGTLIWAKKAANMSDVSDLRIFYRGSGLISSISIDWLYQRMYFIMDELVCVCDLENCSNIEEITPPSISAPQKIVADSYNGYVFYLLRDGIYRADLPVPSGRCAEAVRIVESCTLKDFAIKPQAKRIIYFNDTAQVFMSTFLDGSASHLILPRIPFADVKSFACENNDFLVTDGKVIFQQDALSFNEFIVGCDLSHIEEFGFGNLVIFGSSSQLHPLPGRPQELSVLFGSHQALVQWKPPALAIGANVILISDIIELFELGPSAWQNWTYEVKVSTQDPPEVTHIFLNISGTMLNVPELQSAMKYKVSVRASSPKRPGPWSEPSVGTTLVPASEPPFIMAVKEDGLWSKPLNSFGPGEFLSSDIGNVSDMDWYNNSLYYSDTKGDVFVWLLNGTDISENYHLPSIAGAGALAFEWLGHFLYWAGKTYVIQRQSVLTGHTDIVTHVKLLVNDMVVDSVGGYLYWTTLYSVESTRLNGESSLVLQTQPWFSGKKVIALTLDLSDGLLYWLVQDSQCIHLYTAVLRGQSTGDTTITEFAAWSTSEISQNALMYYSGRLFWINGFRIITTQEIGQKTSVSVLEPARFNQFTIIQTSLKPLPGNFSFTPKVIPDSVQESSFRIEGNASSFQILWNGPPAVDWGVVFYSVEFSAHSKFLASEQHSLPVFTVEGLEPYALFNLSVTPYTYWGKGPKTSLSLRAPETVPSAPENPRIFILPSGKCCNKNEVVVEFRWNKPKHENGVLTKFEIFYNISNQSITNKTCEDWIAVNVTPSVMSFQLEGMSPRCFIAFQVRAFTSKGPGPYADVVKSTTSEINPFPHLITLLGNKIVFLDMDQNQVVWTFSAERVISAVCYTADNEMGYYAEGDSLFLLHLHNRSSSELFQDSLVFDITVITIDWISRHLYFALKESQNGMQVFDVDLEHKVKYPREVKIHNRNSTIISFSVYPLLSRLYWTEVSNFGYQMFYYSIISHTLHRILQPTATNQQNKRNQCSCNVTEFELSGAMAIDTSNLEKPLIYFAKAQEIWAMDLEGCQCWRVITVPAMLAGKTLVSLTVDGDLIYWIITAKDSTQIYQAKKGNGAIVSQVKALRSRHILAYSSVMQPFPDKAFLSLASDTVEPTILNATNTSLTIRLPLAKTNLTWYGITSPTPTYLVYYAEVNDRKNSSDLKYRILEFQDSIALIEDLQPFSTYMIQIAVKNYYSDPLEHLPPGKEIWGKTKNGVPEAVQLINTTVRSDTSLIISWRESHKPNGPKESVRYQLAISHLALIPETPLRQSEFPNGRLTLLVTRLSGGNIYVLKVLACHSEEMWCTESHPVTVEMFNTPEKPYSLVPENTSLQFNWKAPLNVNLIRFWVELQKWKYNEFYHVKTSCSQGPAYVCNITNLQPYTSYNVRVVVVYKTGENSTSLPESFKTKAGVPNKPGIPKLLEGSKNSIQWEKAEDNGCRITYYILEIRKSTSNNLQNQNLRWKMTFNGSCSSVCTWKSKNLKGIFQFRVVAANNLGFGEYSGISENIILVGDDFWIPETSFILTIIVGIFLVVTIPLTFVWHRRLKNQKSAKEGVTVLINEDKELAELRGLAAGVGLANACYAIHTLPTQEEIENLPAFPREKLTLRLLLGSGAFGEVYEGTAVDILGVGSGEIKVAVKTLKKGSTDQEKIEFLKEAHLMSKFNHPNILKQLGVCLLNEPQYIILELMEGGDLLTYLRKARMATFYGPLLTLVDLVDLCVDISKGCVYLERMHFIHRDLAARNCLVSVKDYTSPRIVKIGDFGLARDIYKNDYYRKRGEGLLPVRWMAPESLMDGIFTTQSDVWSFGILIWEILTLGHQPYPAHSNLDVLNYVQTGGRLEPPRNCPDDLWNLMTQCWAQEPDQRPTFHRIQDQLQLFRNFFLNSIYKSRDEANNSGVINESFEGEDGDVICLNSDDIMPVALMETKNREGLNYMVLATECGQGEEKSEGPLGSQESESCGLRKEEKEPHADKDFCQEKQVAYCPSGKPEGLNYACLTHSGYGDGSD
Chain of Serine/threonine-protein kinase PAK 4 (O96013 whole entry, looked up): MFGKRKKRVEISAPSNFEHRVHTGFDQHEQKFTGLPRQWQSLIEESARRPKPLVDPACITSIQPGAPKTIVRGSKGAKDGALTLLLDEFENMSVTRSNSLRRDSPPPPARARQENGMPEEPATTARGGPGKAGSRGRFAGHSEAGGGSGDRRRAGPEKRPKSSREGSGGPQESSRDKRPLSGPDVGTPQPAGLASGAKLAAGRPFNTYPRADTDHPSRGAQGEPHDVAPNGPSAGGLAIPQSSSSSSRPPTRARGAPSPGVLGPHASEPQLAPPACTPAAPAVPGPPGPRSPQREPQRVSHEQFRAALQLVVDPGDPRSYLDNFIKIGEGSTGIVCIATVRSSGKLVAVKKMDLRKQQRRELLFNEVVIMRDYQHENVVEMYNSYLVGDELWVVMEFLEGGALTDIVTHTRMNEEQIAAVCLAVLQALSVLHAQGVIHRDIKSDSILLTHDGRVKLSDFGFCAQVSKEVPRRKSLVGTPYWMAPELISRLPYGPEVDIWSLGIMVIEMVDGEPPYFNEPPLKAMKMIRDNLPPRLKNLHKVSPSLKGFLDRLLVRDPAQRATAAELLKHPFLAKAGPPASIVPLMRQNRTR
Chain of AP2-associated protein kinase 1 (Q2M2I8 whole entry, looked up): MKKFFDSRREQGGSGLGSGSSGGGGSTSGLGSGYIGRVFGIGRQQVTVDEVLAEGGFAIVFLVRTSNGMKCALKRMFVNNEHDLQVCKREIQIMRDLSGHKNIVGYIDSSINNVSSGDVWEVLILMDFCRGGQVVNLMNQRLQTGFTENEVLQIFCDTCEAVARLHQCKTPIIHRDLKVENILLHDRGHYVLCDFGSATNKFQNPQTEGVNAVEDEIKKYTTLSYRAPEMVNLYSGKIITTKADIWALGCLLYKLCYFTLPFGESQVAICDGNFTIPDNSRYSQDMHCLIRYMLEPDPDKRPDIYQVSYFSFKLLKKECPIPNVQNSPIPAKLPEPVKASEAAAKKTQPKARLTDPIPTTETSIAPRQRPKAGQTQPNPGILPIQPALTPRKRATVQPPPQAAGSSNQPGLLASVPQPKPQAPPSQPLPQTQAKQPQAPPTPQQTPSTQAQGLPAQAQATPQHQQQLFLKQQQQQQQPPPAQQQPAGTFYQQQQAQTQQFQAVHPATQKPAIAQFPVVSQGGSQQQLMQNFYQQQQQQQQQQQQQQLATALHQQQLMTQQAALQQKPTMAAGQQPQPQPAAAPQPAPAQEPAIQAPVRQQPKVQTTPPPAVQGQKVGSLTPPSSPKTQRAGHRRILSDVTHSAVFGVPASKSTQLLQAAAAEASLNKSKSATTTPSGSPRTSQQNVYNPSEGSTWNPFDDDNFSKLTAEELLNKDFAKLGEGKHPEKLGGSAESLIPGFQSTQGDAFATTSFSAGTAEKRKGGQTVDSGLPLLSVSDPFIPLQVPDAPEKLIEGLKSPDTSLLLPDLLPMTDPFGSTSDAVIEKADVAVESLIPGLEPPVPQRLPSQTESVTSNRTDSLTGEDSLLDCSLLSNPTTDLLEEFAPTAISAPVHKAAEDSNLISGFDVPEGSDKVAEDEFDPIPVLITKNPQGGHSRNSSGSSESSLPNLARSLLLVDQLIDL
Chain of Tyrosine-protein kinase Lck (P06239 2-509 limits assumed): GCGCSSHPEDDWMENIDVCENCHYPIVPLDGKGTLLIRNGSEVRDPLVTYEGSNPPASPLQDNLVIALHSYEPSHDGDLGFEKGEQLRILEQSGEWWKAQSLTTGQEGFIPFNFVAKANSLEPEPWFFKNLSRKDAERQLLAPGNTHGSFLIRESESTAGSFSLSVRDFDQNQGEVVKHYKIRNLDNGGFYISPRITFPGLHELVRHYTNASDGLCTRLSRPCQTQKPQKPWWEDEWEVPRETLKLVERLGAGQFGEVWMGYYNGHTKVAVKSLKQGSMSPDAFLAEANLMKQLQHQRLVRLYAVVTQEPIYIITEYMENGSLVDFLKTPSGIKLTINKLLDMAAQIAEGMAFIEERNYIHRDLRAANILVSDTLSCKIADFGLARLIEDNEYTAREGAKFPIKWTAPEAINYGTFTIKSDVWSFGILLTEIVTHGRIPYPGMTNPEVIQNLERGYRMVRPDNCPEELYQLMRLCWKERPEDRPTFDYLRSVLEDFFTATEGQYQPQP

% of inhibition [1]: 7%
SMILES: CN1Cc2nccc(-c3cn(C)nc3-c3ccc(F)cc3)c2C1=O

SMILES: Cc1cc(C)cc([C@@H]2c3cc(C)ccc3NC(=O)CN2C(=O)c2ccc(Br)s2)c1
% of activity ([2]; at 1 µM): 98% | % of activity ([2]; at 10 µM): 96.3%

SMILES: COCC(=O)NC/C=C/c1ccc2ncnc(Nc3ccc(Oc4ccc(C)nc4)c(C)c3)c2c1 [CP-724714]
% of control [3]: 100%

SMILES: CC(C)(O)[C@H](F)CN1Cc2cc(NC(=O)c3cnn4cccnc34)c(N3CCOCC3)cc2C1=O
dTM [4]: 1.1 K

SMILES: C=CC(=O)Nc1cc(-n2c(=O)ccc3cnc4ccc(-c5ccc(NS(C)(=O)=O)cc5)cc4c32)ccc1C
% of control ([5]; at 1 µM): 81% | % of control ([5]; at 10 µM): 83%

SMILES: C=CC(=O)Nc1ccc(C(=O)Nc2[nH]nc3c2CN(C(=O)N[C@H](CN(C)C)c2ccccc2)C3(C)C)cc1
% of engagement [6]: -2.9% | % of engagement ([7]; Selectivity number of off-targets 0.0, Selectivity number of targets 233.0, Source Knowledge https://www.sciencedirect.com/science/article/pii/S2451945619300674?via%3Dihub): -1.8% | % of engagement [7]: -1.7%

SMILES: N#Cc1cccc(-c2c[nH]c3ncnc(N4CCOCC4)c23)c1
% of control [8]: 100% | % of control [9]: 100%
